≈ marks a conversion by molar mass, not a printed value. Where two headings read alike, the source gives them in different places.
Key:
[1] = Kinetic solubility measurement using Charged Aerosol Detector (CAD); type: physicochemical; settings: phosphate buffered saline (PBS) pH 7.4, aqueous buffer, PBS pH 7.4, 1 hour at room temperature, from DMSO stock
Experimental: Kinetic solubility measurement using Charged Aerosol Detector (CAD). The aqueous kinetic solubility at pH 7.4 was determined by measuring the concentration of solute in solution after precipitation from DMSO stock solution. The DMSO stock solution was diluted 20-fold with phosphate buffered saline (PBS) pH 7.4 and the solubility of the compound was measured after 1 hour equilibration at room temperature by HPLC-CAD. Calibration standards of Ketoconazole and Primidone were prepared by serial dilutions in DMSO at concentrations ranging from 0.016 to 4.5 mg/ml to produce the calibration curve used to determine the solubility of the compounds as previously described in Max W. Robinson et al, Use of Calculated Physicochemical Properties to Enhance Quantitative Response When Using Charged Aerosol Detection, Anal. Chem., 2017, 89 (3), pp 1772-1777, which is herein incorporated by reference.

human Nav1.8 = human Nav1.8 (Homo sapiens (Human), UniProt Q9Y5Y9); assay: QPatch 48 HTX electrophysiology, half inactivation state (V1/2) voltage protocol in HEK293-Nav1.8; type: cell-based; settings: HEK293-Nav1.8, QPatch V1/2 protocol, P2 current; average if more than one run
Chain of human Nav1.8 (Q9Y5Y9 whole entry): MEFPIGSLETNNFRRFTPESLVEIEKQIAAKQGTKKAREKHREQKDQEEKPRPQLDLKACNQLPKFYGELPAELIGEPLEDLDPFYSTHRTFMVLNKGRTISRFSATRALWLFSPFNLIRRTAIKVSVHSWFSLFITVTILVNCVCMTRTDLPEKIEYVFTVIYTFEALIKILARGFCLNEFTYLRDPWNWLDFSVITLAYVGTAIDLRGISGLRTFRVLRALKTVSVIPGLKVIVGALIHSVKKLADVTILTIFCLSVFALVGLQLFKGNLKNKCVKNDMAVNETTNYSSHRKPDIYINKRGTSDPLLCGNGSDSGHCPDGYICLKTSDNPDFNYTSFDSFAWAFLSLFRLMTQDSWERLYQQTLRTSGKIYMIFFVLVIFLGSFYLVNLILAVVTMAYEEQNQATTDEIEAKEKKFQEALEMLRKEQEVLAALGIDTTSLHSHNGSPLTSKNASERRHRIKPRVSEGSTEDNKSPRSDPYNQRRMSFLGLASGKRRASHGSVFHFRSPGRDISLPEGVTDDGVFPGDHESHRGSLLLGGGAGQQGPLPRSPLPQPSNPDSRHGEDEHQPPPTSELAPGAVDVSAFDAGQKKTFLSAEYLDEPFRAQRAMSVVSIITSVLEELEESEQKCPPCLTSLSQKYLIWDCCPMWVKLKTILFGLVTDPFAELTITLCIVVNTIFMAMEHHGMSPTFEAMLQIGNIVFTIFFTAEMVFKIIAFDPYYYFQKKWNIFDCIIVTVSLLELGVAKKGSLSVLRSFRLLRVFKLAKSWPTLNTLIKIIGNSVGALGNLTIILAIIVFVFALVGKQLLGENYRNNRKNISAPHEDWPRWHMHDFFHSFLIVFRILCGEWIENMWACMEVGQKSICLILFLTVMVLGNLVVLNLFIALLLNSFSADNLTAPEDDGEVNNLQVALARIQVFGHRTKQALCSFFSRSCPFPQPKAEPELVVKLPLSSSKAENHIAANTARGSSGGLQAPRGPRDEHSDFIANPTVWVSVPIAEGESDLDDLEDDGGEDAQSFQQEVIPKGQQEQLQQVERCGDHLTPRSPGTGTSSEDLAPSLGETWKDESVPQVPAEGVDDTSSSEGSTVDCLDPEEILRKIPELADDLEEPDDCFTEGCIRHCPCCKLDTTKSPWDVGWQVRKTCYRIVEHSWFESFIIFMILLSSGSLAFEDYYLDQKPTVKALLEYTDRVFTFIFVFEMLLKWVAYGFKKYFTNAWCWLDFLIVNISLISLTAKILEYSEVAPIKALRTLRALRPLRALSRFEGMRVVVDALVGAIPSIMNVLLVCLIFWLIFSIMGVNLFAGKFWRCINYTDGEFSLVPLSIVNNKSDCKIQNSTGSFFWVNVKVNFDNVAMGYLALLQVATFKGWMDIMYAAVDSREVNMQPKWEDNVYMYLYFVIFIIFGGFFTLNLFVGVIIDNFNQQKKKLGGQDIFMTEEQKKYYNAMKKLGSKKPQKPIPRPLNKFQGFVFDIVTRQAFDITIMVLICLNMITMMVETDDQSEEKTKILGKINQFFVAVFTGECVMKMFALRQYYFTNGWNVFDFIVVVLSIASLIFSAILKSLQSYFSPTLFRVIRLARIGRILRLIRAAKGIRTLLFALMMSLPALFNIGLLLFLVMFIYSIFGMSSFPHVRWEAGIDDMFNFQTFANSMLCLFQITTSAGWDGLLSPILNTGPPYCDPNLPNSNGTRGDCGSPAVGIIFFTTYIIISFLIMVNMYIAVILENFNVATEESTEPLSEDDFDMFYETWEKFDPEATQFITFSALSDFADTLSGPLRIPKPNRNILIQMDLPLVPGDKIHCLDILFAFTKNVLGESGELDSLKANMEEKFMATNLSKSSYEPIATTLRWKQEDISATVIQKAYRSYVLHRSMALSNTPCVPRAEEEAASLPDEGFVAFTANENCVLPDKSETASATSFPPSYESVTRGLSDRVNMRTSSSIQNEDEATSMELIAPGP
Experimental: Human embryonic kidney 293 cells (HEK293) expressing human Nav1.8, human Navβ1 and human TREK1 (HEK293-Nav1.8) were grown at 37° C., 5% CO2 in 150 cm^2 flasks. HEK293-Nav1.8 were passaged every 2-3 days into T175 cell culture flasks when confluency reached 80-90%.
Pharmacological assessment of the compounds of the invention was performed using HEK293-Nav1.8 in combination with an assay developed on the QPatch 48 HTX electrophysiological system. HEK293-Nav1.8 were prepared on the day of use by removing culture media, washing in DPBS, adding Accutase (2 ml to cover the surface, aspirate 1 ml then 1.5 min at 37° C.) followed by addition of CHO-SFM II to stop the enzyme digestion and in order to obtain a suspension of 3×10^6 cell/mL.
Compound was prepared in an extracellular solution of the following composition: NaCl (145 mM), KCl (4 mM), CaCl2 (2 mM), MgCl2 (2 mM), HEPES (1 mM), Glucose (10 mM), pH 7.4 with NaOH Osmolality 300 mOsM/L. The intracellular solution was used of the following composition: CsF (115 mM), CsCl (20 mM), NaCl (5 mM), EGTA (10 mM), HEPES (10 mM), Sucrose (20 mM), pH 7.2 with CsOH Osmolality 310 mOsm/L.
Utilizing the voltage-clamp mode in the QPatch 48 HTX system a half inactivation state voltage protocol (V1/2) was used to determine pharmacological activity of compounds of the invention at Nav1.8 ion channels. A V1/2 protocol was utilized with the following voltage steps: a holding voltage of −100 mV was established followed by a 20 ms voltage step to 0 mV (P1), followed by an inactivating voltage step at −46 mV for 8 seconds, followed by a step to −100 mV for 20 ms, before a 20 ms step to 0 mV (P2) before returning to the holding voltage of −100 mV. This voltage protocol was repeated at a frequency of 0.07 Hz., current magnitude was quantified at the P2 step throughout the recording. Inhibition of the measured current amplitude with the compounds of the invention was analyzed by fitting a 6-8 point dose-response curve allowing determination of the fifty percent inhibition concentration (IC50). Within the QPatch HTX software, P2 current was normalized according to measurements made at baseline after compound and after positive reference compound and fit to the following equation: […]
To assess current run-down over the course of the experiment vehicle-only wells were utilized and the normalized current with vehicle-only (n.IVEH) was determined. To correct the compound response for run-down, the currents were corrected according the following formula: […]
Compounds of the invention and the corresponding parent compounds (see Table 1A for structures) were tested for activity against Nav1.8 sodium channels in the above assay in one or more experimental runs and the results are shown in Table 1 below. Potency of the compounds of the invention is reported as a pIC50 value. The pIC50 value is the negative log of the IC50 value, wherein the IC50 value is the half maximal inhibitory concentration measured in molar (M). Potency of the compounds of the invention is compared to the potency of the parent compound. For compounds tested in more than one experimental run, the pIC50 value is reported as an average.

[2] = Rat IV/PO pharmacokinetic study (prodrug to parent conversion); type: in vivo, Han Wistar rats
Experimental: An in vivo rat pharmacokinetic study was conducted to determine whether the prodrug compounds of the invention are converted to the respective parent compound upon administration. The rat pharmacokinetic study was conducted with a crossover design on two study days with a one-day recovery period between each study day. Three male, dual catheterized (femoral vein and carotid artery) Han Wistar rats were used for the study. Each rat was also implanted with a gastric catheter for oral dose administration. Rats were dosed at 1 mg/kg by a 60 minute intravenous (IV) infusion (femoral vein cannula), then subsequently oral dosed at 2 mg/kg via the gastric cannula, with 48 hours between dosing sessions. Dose solutions of the compound of Example 3 were prepared in 20% Cavitron/5% DMSO/75% water (IV) and in 6% Cavitron/5% DMSO/89% water (PO) without pH adjustment. The dose solutions were filtered using a 0.22 μ filter. The pH of the final dosing solutions was 6.0.
During the intravenous study leg, blood samples were collected from the carotid artery catheter at target times of 15, 30, 60 (end of infusion), 65, 75, 90, 120, 240, 360, 480, 720, and 1440 minutes following the initiation of the intravenous infusion of the compound of Example 3. During the oral study leg, blood samples were collected prior to dosing and at target times of 15, 30, 60, 90, 120, 180, 240, 360, 480, 720, and 1440 minutes following oral administration. Blood samples, 100 μL, were mixed with 100 μL phosphatase inhibitor, a 50 μL aliquot of the blood and inhibitor mixture was transferred to a non-heparinized tube and stored at approximately −80° C. until analyzed. The concentrations in the filtered dose solutions were confirmed by preparing stepwise dilutions first into 50% aqueous acetonitrile with 0.1% formic acid then into heparinized male Wistar Han blood:inhibitor to achieve determined nominal concentrations. Triplicate 50 μL aliquots were removed and were frozen and stored at approximately […] until analyzed by LC-MS/MS as described below.
LC-MS/MS was used to quantify the compound of Example 3 and the corresponding parent compound of Example 3A in the biological samples generated in the above described in vivo study. Samples were prepared by protein precipitation followed by LC-MS/MS analysis employing positive-mode ionization against a set of calibration standards for the compounds prepared in the same matrix. Pharmacokinetic parameters for the study was derived from the concentration versus time profiles. Key pharmacokinetic parameters such as AUC0-∞ (extrapolated area under the blood concentration-time curve), AUC0-t (area under the blood concentration-time curve to the last time point with quantifiable drug), Cmax (maximum concentration), Tmax (time Cmax is achieved), CL (systemic blood clearance), Vdss (steady-state volume of distribution), MRT (mean residence time), and t1/2(half-life) were determined for the compound of Example 3. The key pharmacokinetic parameters such as AUC0-∞, AUC0-t, Cmax, Tmax, MRT, and t1/2 (half-life) were determined for the parent compound Example 3A. Descriptive statistical data of pharmacokinetic parameters were calculated, including the mean and standard deviation (SD) using Microsoft Excel.
The data are shown below in Tables 3A and 3B. Data are reported as mean±SD (N=3).

[3] = average of multiple runs, read-out: CAD solubility (Parent Compounds)
[4] = average for Examples 1 and 3, one run for 2 and 4, read-out: CAD solubility (Prodrug Compounds of the Invention)
[5] = male, Han Wistar, whole blood, prodrug in blood, Example 3 1 mg/kg 60 minute intravenous infusion, mean±SD (N=3)

| SMILES | solubility at 1 h [1, 3] [µg/mL] | [Nav1.8] pIC50 (Compounds of the Invention) (human Nav1.8) | solubility at 1 h [1, 4] [µg/mL] | further results |
| --- | --- | --- | --- | --- |
| Cc1cc(F)ccc1N1CN(c2ccc(=O)n(COP(=O)(O)O)c2C)C(=O)c2cc(C(F)(F)F)ccc21 [Example 1, (5-(1-(4-Fluoro-2-methylphenyl)-4-oxo-6-(trifluoromethyl)-1,4-dihydroquinazolin-3(2H)-yl)-6-methyl-2-oxopyridin-1(2H)-yl)methyl dihydrogen phosphate] |  | 6.8 | > 260 |  |
| Cc1cc(F)ccc1N1CN(c2ccc(=O)n(COP(=O)(O)O)c2C)C(=O)c2ccc(C(F)(F)F)cc21 [Example 2, (5-(1-(4-fluoro-2-methylphenyl)-4-oxo-7-(trifluoromethyl)-1,4-dihydroquinazolin-3(2H)-yl)-6-methyl-2-oxopyridin-1(2H)-yl)methyl dihydrogen phosphate] |  | 6.6 | > 193 |  |
| Cc1cc(F)ccc1N1CN(c2ccc(=O)n(COP(=O)(O)O)c2C)C(=O)c2cc(Cl)ccc21 [Example 3, (5-(6-chloro-1-(4-fluoro-2-methylphenyl)-4-oxo-1,4-dihydroquinazolin-3(2H)-yl)-6-methyl-2-oxopyridin-1(2H)-yl)methyl dihydrogen phosphate] |  | 6.9 | 102 | AUC(0-inf) [2, 5]: 250 ± 30 ng·h/mL; AUC(0-t) [2, 5]: 240 ± 40 ng·h/mL; Cmax [2, 5]: 260 ± 24 ng/mL; clearance ([2]; male, Han Wistar, whole blood, prodrug, systemic blood clearance, Example 3 1 mg/kg 60 minute intravenous infusion, mean±SD (N=3)): 58 ± 9 mL/min/kg; quantifiable concentrations following oral administration ([2]; prodrug in blood, Example 3 2 mg/kg oral via gastric cannula, text runs over cells r6-r10): There were no |
| Cc1cc(OC(F)(F)F)ccc1N1CN(c2ccc(=O)n(COP(=O)(O)O)c2C)C(=O)c2cc(C(F)(F)F)cnc21 [Example 4, (6-methyl-5-(1-(2-methyl-4-(trifluoromethoxy)phenyl)-4-oxo-6-(trifluoromethyl)-1,4-dihydropyrido[2,3-d]pyrimidin-3(2H)-yl)-2-oxopyridin-1(2H)-yl)methyl dihydrogen phosphate] |  | 6.1 | 181 |  |

The next lines start with results.

| solubility at 1 h [1, 3] [µg/mL] | [Nav1.8] pIC50 (Compounds of the Invention) (human Nav1.8) | solubility at 1 h [1, 4] [µg/mL] | SMILES | further results |
| --- | --- | --- | --- | --- |
| 54 (≈ 136 µM) |  |  | Cc1cc(F)ccc1N1CN(c2ccc(=O)[nH]c2C)C(=O)c2cc(Cl)ccc21 [Parent Compound 3A, 6-chloro-1-(4-fluoro-2-methylphenyl)-3-(2-methyl-6-oxo-1,6-dihydropyridin-3-yl)-2,3-dihydroquinazolin-4(1H)-one] |  |
| 48 (≈ 111 µM) |  |  | Cc1cc(F)ccc1N1CN(c2ccc(=O)[nH]c2C)C(=O)c2cc(C(F)(F)F)ccc21 [Parent Compound 1A, 1-(4-fluoro-2-methylphenyl)-3-(2-methyl-6-oxo-1,6-dihydropyridin-3-yl)-6-(trifluoromethyl)-2,3-dihydroquinazolin-4(1H)-one] | [Nav1.8] pIC50 (Parent Compounds) (human Nav1.8): 8 |
| 87 (≈ 175 µM) |  |  | Cc1cc(OC(F)(F)F)ccc1N1CN(c2ccc(=O)[nH]c2C)C(=O)c2cc(C(F)(F)F)cnc21 [Parent Compound 4A, 1-(2-methyl-4-(trifluoromethoxy)phenyl)-3-(2-methyl-6-oxo-1,6-dihydropyridin-3-yl)-6-(trifluoromethyl)-2,3-dihydropyrido[2,3-d]pyrimidin-4(1H)-one] | [Nav1.8] pIC50 (Parent Compounds) (human Nav1.8): 7.5 |
| 51 (≈ 118 µM) |  |  | Cc1cc(F)ccc1N1CN(c2ccc(=O)[nH]c2C)C(=O)c2ccc(C(F)(F)F)cc21 [Parent Compound 2A, 1-(4-fluoro-2-methylphenyl)-3-(2-methyl-6-oxo-1,6-dihydropyridin-3-yl)-7-(trifluoromethyl)-2,3-dihydroquinazolin-4(1H)-one] |  |

Source: patent US20250084112A1, “Chemical Compounds Useful for Inhibiting Nav1.8 Voltage-Gated Sodium Channels and Treating Nav1.8 Mediated Diseases” (GlaxoSmithKline Intellectual Property Development Limited, priority 2021, published 2025)
